These are literature values, as cited in patent US8013163B2 (Astex Therapeutics Limited, priority 2005, dated 2011).

The test system of the series is malignant cells from B-cell chronic lymphocytic leukemia (B-CLL). Particulars: in vitro; cited from earlier work.

Take `CC[C@H](CO)Nc1nc(NCc2ccccc2)c2ncn(C(C)C)c2n1` [CYC 202]: the induction of apoptosis entry is “induce in vitro apoptosis”.
As for `CN1CC[C@H](c2c(O)cc(O)c3c(=O)cc(-c4ccccc4Cl)oc23)[C@H](O)C1` [Flavopiridol], the induction of apoptosis result is given as “induce in vitro apoptosis”.
